Biological target: T1, wild‐type CFTR (Homo sapiens, UniProt P13569)
T1 construct: expressed in transfected cells
Assay: Single-channel recording in excised inside-out membrane patches, wild-type CFTR
Format: biochemical
Conditions: ATP 0.3 mM; for maximum Po (Po max) / EC50: PKA 75 nM, ~23°C; for EC50: read-out: EC50 for potentiation of Po
Experimental: For CFTR studies using automated electrophysiology and single-channel recording, we used baby hamster kidney (BHK) cells (RRID:CVCL_1915) and human embryonic kidney (HEK) 293 cells (RRID:CVCL_0045) stably expressing wild-type human CFTR and the CFTR variants F508del- and […] et al., [2002]; Xu et al., [2014]). […] HEK cells expressing CFTR variants were generated using the Flp-InTM system as described above for F508del- and G551D-CFTR-expressing FRT cells. They were cultured in Dulbecco's modified Eagle's medium (glucose, 1.5 g·L^-1; sodium pyruvate, 110 mg·L^-1) supplemented with 10% FBS (PAA Laboratories), GlutaMAXTM and hygromycin-B (150 μg·ml^-1; InvitrogenTM, Thermo Fisher Scientific) at 37°C in a humidified atmosphere with 5% CO2. Prior to study, F508del-CFTR expressed in HEK cells was trafficked to the plasma membrane by low temperature incubation (27°C for 24-72 h). The single-channel behaviour of human CFTR in excised membrane patches from different mammalian cell lines heterologously expressing CFTR is equivalent (wild-type CFTR, Chen et al., [2009]; F508del-CFTR, Bose et al., [2019]; and G551D-CFTR, J Liu, Y Wang, Z Cai, and DN Sheppard, unpublished observations). CFTR Cl^- channels were recorded in excised inside-out membrane patches using an Axopatch 200B patch-clamp amplifier and pCLAMP software (version 10.3) (RRID:SCR_011323) (both from Molecular Devices, San Jose, CA, USA) (Sheppard & Robinson, [1997]). […] Within 2 min after membrane patch excision, we added the catalytic subunit of protein kinase A (PKA; 75 nM) and ATP (1 mM) to the intracellular solution to activate CFTR Cl^- channels. To minimise channel rundown, we added PKA and millimolar concentrations of ATP to all intracellular solutions and clamped voltage at -50 mV. […] We reduced the ATP concentration when testing CFTR potentiators on wild-type CFTR to observe their effects more clearly. […] Instead, specific interventions with CFTR potentiators were compared with the pre-intervention control period made with the same concentration of ATP and PKA, but without test compounds. […] F508del-CFTR, n ≤ 4; G551D-CFTR, n ≤ 5). To determine channel number, we used the maximum number of simultaneous channel openings observed during an experiment (Cai et al., [2006]). To minimise errors, we used experimental conditions that robustly potentiate channel activity and verified that recordings were of sufficient length to ascertain the correct number of channels ([…] et al., [1994]). […] Despite our precautions, we cannot exclude the possibility of unobserved G551D-CFTR Cl^- channels in excised membrane patches causing Po values for G551D-CFTR to be […]. Therefore, Po values for G551D-CFTR are expressed as apparent Po (Po(app)) values. Single-channel currents were directly acquired to a computer hard disc after filtering at a corner frequency (f c) of 500 Hz with an eight-pole Bessel filter (model LHBF-48×; npi electronic GmbH, Tamm, Germany) and digitising at a sampling rate of 5 kHz using a Digidata 1440A interface (Molecular Devices) and pCLAMP software. […] The mean interburst interval (TIBI) was calculated using the equation (Cai et al., [2006]): (1) Po=Tb/TMBD+TIBI, where T b = (mean burst duration) × (open probability within a burst). Mean burst duration (T MBD) and open probability within a burst (Po[burst]) were determined directly from experimental data using pCLAMP software. […]

T1 sequence (P13569 whole entry): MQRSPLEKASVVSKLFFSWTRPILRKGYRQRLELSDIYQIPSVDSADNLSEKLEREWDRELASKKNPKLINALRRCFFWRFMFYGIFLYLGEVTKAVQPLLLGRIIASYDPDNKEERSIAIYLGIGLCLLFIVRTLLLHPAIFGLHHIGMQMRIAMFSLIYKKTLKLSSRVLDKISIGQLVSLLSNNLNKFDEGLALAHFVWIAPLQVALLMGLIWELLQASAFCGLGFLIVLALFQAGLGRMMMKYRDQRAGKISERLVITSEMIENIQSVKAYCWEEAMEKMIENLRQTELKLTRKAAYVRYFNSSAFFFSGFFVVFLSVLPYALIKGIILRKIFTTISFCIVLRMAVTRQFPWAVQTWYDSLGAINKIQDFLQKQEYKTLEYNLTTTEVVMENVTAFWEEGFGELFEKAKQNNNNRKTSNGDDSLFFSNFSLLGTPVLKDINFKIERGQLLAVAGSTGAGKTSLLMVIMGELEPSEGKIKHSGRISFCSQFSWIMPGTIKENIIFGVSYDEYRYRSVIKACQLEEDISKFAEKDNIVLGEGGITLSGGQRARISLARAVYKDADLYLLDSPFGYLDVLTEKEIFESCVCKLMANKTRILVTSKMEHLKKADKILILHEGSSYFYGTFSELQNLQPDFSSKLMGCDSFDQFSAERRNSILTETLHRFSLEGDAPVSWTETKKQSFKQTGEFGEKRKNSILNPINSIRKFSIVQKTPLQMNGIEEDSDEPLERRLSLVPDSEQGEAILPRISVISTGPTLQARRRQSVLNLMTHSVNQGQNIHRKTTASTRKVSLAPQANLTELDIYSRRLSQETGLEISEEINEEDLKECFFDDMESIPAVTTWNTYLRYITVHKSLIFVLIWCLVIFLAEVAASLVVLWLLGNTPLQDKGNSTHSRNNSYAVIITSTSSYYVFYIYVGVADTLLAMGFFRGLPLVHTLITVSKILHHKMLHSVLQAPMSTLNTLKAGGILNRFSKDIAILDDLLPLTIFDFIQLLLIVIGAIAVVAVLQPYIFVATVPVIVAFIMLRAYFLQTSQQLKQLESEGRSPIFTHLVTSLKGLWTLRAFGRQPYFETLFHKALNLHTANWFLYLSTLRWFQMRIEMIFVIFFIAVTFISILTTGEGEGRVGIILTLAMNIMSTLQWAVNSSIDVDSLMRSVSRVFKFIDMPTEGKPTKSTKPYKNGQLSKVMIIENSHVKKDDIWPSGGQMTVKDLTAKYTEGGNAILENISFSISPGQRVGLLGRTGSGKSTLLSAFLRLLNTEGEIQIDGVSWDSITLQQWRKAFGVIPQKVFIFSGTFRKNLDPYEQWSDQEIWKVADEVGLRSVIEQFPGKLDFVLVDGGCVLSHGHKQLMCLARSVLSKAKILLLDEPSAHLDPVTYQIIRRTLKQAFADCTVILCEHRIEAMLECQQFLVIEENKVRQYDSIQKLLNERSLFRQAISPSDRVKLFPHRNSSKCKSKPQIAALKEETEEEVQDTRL

Structure (SMILES)	maximum Po (Po max)	EC50	greater potency than CP‐628006
Cc1ncccc1CNC(=O)c1ccc2c(c1)CC[C@H]1C[C@](O)(CCC(F)(F)F)CC[C@]21Cc1ccccc1 (racemic) [CP‐628006, rac‐(4bR,7R,8aS)‐4b‐benzyl‐7‐hydroxy‐N‐((2‐methylpyridin‐3‐yl)methyl)‐7‐(3,3,3‐trifluoropropyl)‐4b,5,6,7,8,8a,9,10‐octahydrophenanthrene‐2‐carboxamide]	0.77	24 nM	–
CC(C)(C)c1cc(C(C)(C)C)c(NC(=O)c2c[nH]c3ccccc3c2=O)cc1O [ivacaftor, reference compound]	0.71	0.21 nM	100 fold

— PMC9304199, “A small molecule CFTR potentiator restores ATP‐dependent channel gating to the cystic fibrosis mutant G551D‐CFTR” (British Journal of Pharmacology, 2022)
